Source: US20130018033A1, “RAF INHIBITOR COMPOUNDS AND METHODS OF USE THEREOF” (ARRAY BIOPHARMA INC., priority 2009, published 2013)
Like-named read-outs stand apart in the source and are kept apart here.

What was measured:
[1] = system: basal ERK1/2 phosphorylation in Malme-3M cells; assay: Cellular ERK 1/2 phosphorylation assay (Example A1); type: cell-based; conditions: Homo sapiens, 1 hour incubation, pERK normalized to total ERK, read-out: P-ERK Malme3-M IC50
Method: Inhibition of basal ERK1/2 phosphorylation was determined by the following in vitro […], which comprises incubating cells with a compound of Formula I for 1 hour and quantifying the fluorescent pERK signal on fixed cells and normalizing to total ERK signal.
Malme-3M cells were obtained from ATCC and grown in RPMI-1640 supplemented with 10% fetal bovine serum. Cells were plated in 96-well plates at 24,000 cells/well and allowed to attach for 16-20 hours at 37° C., 5% CO2. The media was removed, and DMSO-diluted compounds were added in RPMI-1640 at a final concentration of 1% DMSO. The cells were incubated with the compounds for 1 hour at 37° C., 5% CO2. The cells were washed with PBS and fixed in 3.7% formaldehyde in PBS for 15 minutes. This was followed by washing in PBS/0.05% Tween20 and permeabilizing in −20° C. 100% MeOH for 15 minutes. Cells were washed in PBS/0.05% Tween20 then blocked in Odyssey blocking buffer (LI-COR Biosciences) for 1 hour. Antibodies to phosphorylated ERK (1:400, Cell Signaling #9106, monoclonal) and total ERK (1:400, Santa Cruz Biotechnology #sc-94, polyclonal) were added to the cells and incubated 16-20 hours at 4° C. After washing with PBS/0.05% Tween20, the cells were incubated with fluorescently-labeled secondary antibodies (1:1000 goat anti-rabbit IgG-IRDye800, Rockland and 1:500 goat anti-mouse IgG-Alexa Fluor 680, Molecular Probes) for an additional hour. Cells were then washed and analyzed for fluorescence at both wavelengths using the Odyssey Infrared Imaging System (LI-COR Biosciences). Phosphorylated ERK signal was normalized to total ERK signal.

V600E full-length B-Raf = target: T1, V600E full-length B-Raf (Homo sapiens, UniProt P15056, V600E); assay: B-Raf IC50 assay (Example A); type: biochemical
T1 construct: 1 μM FSBA-MEK and 20 nM V600E full-length B-Raf; made in house; host or cells: Sf9 insect cells (baculovirus)
T1 sequence (P15056 whole entry V600E): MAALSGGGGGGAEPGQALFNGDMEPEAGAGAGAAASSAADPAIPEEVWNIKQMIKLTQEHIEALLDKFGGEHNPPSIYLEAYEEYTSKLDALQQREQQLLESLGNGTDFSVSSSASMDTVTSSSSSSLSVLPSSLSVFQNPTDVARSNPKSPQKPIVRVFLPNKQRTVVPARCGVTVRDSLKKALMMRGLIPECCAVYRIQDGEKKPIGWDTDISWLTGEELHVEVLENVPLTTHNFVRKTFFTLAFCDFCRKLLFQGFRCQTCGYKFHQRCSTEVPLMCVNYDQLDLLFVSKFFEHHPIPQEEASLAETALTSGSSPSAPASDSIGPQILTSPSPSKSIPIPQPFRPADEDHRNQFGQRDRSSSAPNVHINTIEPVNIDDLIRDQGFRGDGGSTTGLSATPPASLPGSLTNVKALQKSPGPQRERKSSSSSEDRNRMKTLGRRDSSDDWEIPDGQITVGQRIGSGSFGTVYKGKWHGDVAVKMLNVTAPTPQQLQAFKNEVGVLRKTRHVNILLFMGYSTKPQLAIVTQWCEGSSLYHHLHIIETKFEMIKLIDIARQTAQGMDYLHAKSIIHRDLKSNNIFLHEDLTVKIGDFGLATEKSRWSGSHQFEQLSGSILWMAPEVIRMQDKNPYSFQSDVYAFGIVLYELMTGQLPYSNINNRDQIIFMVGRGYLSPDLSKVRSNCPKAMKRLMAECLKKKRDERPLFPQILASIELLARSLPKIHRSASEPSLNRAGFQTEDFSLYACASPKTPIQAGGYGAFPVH
Source text: Determining the activity of Raf in the sample is possible by a number of direct and indirect detection methods (US 2004/0082014). Activity of human recombinant B-Raf protein may be assessed in vitro by assay of the incorporation of radio labeled phosphate to recombinant MAP kinase (MEK), a known physiologic substrate of B-Raf, according to US 2004/0127496 and WO 03/022840. The activity/inhibition of V600E full-length B-Raf was estimated by measuring the incorporation of radio labeled phosphate from [γ-^33P]ATP into FSBA-modified wild-type MEK (see Example A).
Activity of human recombinant B-Raf protein may be assessed in vitro by assay of the incorporation of radio labeled phosphate to recombinant MAP kinase (MEK), a known physiologic substrate of B-Raf, according to US 2004/0127496 and WO 03/022840. Catalytically active human recombinant B-Raf protein is obtained by purification from sf9 insect cells infected with a human B-Raf recombinant baculovirus expression vector.
The activity/inhibition of V600E full-length B-Raf was estimated by measuring the incorporation of radio labeled phosphate from [γ-^33P]ATP into FSBA-modified wild-type MEK. The 30-μL assay mixtures contained 25 mM Na Pipes, pH 7.2, 100 mM KCl, 10 mM MgCl2, 5 mM β-glycerophosphate, […], 4 μM ATP, 500 nCi [γ-^33P]ATP, 1 μM FSBA-MEK and 20 nM V600E full-length B-Raf. Incubations were carried out at 22° C. in a Costar 3365 plate (Corning). Prior to the assay, the B-Raf and FSBA-MEK were preincubated together in assay buffer at 1.5×(20 μL of 30 nM and 1.5 μM, respectively) for 15 minutes, and the assay was initiated by the addition of 10 μL of 10 μM ATP. Following the 60-minute incubation, the assay mixtures were quenched by the addition of 100 μL of 25% TCA, the plate was mixed on a rotary shaker for 1 minute, and the product was captured on a Perkin-Elmer GF/B filter plate using a Tomtec Mach III Harvester. After sealing the bottom of the plate, 35 μL of Bio-Safe II (Research Products International) scintillation cocktail were added to each well and the plate was top-sealed and counted in a Topcount NXT (Packard).

[2] = B-Raf V600E assay of Example A, read-out: IC50
[3] = [γ-33P]ATP incorporation into FSBA-MEK, 4 μM ATP, read-out: BRAF V600E IC50

IC50 (V600E full-length B-Raf; [2]) [nM]	IC50 (V600E full-length B-Raf; [3]) [nM]	Structure (SMILES)	IC50 [1] [nM]
< 100	12.7	Nc1ncnc2c(C(=O)Nc3c(F)ccc(NS(=O)(=O)N4CCCC4)c3F)cccc12 [Example 34, 4-Amino-quinazoline-8-carboxylic acid [2,6-difluoro-3-(pyrrolidine-1-sulfonylamino)-phenyl]-amide]	15.6
< 100	0.16	N#Cc1c(NS(=O)(=O)N2CCCC2)ccc(F)c1NC(=O)c1cccc2c(N)ncnc12 [Example 35, 4-Amino-quinazoline-8-carboxylic acid [2-cyano-6-fluoro-3-(pyrrolidine-1-sulfonylamino)-phenyl]-amide]	7.48
< 100	14.8	CN(C)S(=O)(=O)Nc1ccc(F)c(NC(=O)c2cccc3c(N)ncnc23)c1F [Example 36, 4-Amino-N-(3-(N,N-dimethylsulfamoylamino)-2,6-difluorophenyl)quinazoline-8-carboxamide]	25.2
< 100	21.5	CCN(C)S(=O)(=O)Nc1ccc(F)c(NC(=O)c2cccc3c(N)ncnc23)c1Cl [Example 37, 4-Amino-N-(2-chloro-3-(N-ethyl-N-methylsulfamoylamino)-6-fluorophenyl)quinazoline-8-carboxamide]	39.7
< 100	7.01	CN(C)S(=O)(=O)Nc1ccc(Cl)c(NC(=O)c2cccc3c(N)ncnc23)c1F [Example 38, 4-Amino-N-(6-chloro-3-(N,N-dimethylsulfamoylamino)-2-fluorophenyl)quinazoline-8-carboxamide]	28
< 100	7.5	CN(C)S(=O)(=O)Nc1ccc(F)c(NC(=O)c2cccc3c(N)ncnc23)c1Cl [Example 39, 4-Amino-N-(2-chloro-3-(N,N-dimethylsulfamoylamino)-6-fluorophenyl)quinazoline-8-carboxamide]	32.7
< 100	2.2	CCCS(=O)(=O)Nc1ccc(F)c(NC(=O)c2cc(C#CCO)cc3c(N)ncnc23)c1F [Example 40, 4-Amino-6-(3-hydroxy-prop-1-ynyl)-quinazoline-8-carboxylic acid [2,6-difluoro-3-(propane-1-sulfonylamino)-phenyl]-amide]	158
< 1000	293	CCCS(=O)(=O)Nc1cc(F)c(F)c(NC(=O)c2cccc3c(NCCF)ncnc23)c1F [Example 43, 4-(2-Fluoro-ethylamino)-quinazoline-8-carboxylic acid [2,3,6-trifluoro-5-(propane-1-sulfonylamino)-phenyl]-amide]	2910
< 1000	105	CCCS(=O)(=O)Nc1cc(F)c(F)c(NC(=O)c2cccc3c(NN4CCOCC4)ncnc23)c1F [Example 47, 4-(Morpholin-4-ylamino)-quinazoline-8-carboxylic acid [2,3,6-trifluoro-5-(propane-1-sulfonylamino)-phenyl]-amide]	1170
< 1000	143	O=C(Nc1c(F)c(F)cc(NS(=O)(=O)CCCF)c1F)c1cccc2c(NC3CC3)ncnc12 [Example 51, 4-(Cyclopropylamino)-N-(2,3,6-trifluoro-5-(3-fluoropropylsulfonamido)phenyl)quinazoline-8-carboxamide]	2310
< 1000	290	CCNc1ncnc2c(C(=O)Nc3c(F)c(F)cc(NS(=O)(=O)CCCF)c3F)cccc12 [Example 52, 4-Ethylamino-quinazoline-8-carboxylic acid [2,3,6-trifluoro-5-(3-fluoro-propane-1-sulfonylamino)-phenyl]-amide]	5290
< 1000	119	CCCS(=O)(=O)Nc1ccc(F)c(NC(=O)c2cccc3cncnc23)c1F [Example 54, Quinazoline-8-carboxylic acid [2,6-difluoro-3-(propane-1-sulfonylamino)-phenyl]amide]	526
< 100	32.2	O=C(Nc1c(F)ccc(NS(=O)(=O)CCCF)c1F)c1cccc2cncnc12 [Example 55, Quinazoline-8-carboxylic acid [2,6-difluoro-3-(3-fluoro-propane-1-sulfonylamino)-phenyl]-amide]	92.8
< 1000	204	O=C(Nc1c(F)ccc(NS(=O)(=O)CC2CC2)c1F)c1cccc2cncnc12 [Example 56, Quinazoline-8-carboxylic acid (3-cyclopropylmethane-sulfonylamino-2,6-difluoro-phenyl)-amide]	638
< 100	0.96	O=C(Nc1c(Cl)ccc(NS(=O)(=O)CCCF)c1Cl)c1cccc2cncnc12 [Example 57, Quinazoline-8-carboxylic acid [2,6-dichloro-3-(3-fluoro-propane-1-sulfonylamino)-phenyl]-amide]	87.6
< 100	17.1	CCCS(=O)(=O)Nc1ccc(Cl)c(NC(=O)c2cccc3cncnc23)c1F [Example 58, Quinazoline-8-carboxylic acid [6-chloro-2-fluoro-3-(propane-1-sulfonylamino)-phenyl]-amide]	301
< 100	1.49	O=C(Nc1c(Cl)ccc(NS(=O)(=O)CCCF)c1F)c1cccc2cncnc12 [Example 59, Quinazoline-8-carboxylic acid [6-chloro-2-fluoro-3-(3-fluoro-propane-1-sulfonylamino)-phenyl]-amide]	83.7
< 100	0.82	Cc1ncnc2c(C(=O)Nc3c(Cl)ccc(NS(=O)(=O)CCCF)c3Cl)cccc12 [Example 60, 4-Methyl-quinazoline-8-carboxylic acid [2,6-dichloro-3-(3-fluoro-propane-1-sulfonylamino)-phenyl]-amide]	53.4
< 100	19.3	Cc1ncnc2c(C(=O)Nc3c(F)ccc(NS(=O)(=O)CCCF)c3F)cccc12 [Example 61, 4-Methyl-quinazoline-8-carboxylic acid [2,6-difluoro-3-(3-fluoro-propane-1-sulfonylamino)-phenyl]-amide]	116
< 100	3.07	Cc1ncnc2c(C(=O)Nc3c(Cl)ccc(NS(=O)(=O)CCCF)c3F)cccc12 [Example 62, 4-Methyl-quinazoline-8-carboxylic acid [6-chloro-2-fluoro-3-(3-fluoro-propane-1-sulfonylamino)-phenyl]-amide]	44
< 100	1.01	CCCS(=O)(=O)Nc1ccc(F)c(NC(=O)c2ccnc3c(N)ncnc23)c1Cl [Example 63, 4-Amino-pyrido[3,2-d]pyrimidine-8-carboxylic acid [2-chloro-6-fluoro-3-(propane-1-sulfonylamino)-phenyl]-amide]	7.6
< 100	3.11	CCCS(=O)(=O)Nc1ccc(F)c(NC(=O)c2ccnc3c(N)ncnc23)c1F [Example 64, 4-Amino-pyrido[3,2-d]pyrimidine-8-carboxylic acid [2,6-difluoro-3-(propane-1-sulfonylamino)-phenyl]-amide]	9.7
